Measured values as given in patent US7074789B2, “Kinase inhibitors” (Amgen Inc., priority 1999, dated 2006).

Experiments:
Assay type in all cases: biochemical
[1] = biological target: T1, IGFR-1 (Homo sapiens, UniProt P08069); assay: Kinase inhibition assay (33P transfer), IGFR-1; details: Table 2, class symbols A-E
T1 construct: Kinases are expressed as either kinase domains or full length constructs; made in house

[2] = biological target: T2, AKT (Homo sapiens, UniProt Q9Y243); assay: Kinase inhibition assay (33P transfer), AKT; details: Table 2, class symbols A-E; read-out: AKT3-1
T2 construct: Kinases are expressed as either kinase domains or full length constructs; made in house
T2 sequence (Q9Y243 whole entry, the tested form may be a part): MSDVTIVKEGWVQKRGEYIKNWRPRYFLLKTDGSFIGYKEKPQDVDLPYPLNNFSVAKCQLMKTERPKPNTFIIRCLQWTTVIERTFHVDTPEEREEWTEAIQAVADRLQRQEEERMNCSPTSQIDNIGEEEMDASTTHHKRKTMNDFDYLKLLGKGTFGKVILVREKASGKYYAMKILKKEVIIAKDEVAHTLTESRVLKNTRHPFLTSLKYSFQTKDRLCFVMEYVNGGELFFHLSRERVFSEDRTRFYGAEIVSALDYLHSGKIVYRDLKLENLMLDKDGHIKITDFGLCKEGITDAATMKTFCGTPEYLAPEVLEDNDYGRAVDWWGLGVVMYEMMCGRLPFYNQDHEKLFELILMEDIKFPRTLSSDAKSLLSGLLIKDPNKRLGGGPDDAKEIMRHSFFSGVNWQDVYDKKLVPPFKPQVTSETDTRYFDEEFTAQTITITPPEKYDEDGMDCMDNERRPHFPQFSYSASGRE
Outline: (§1)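 33P-ATP transfer to coated synthetic polymer substrates; acid wash (0.5% H3PO4), scintillant, liquid scintillation count. Enzymes: His- or GST-fusion kinases from E. coli or High Five insect cells.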

[3] = biological target: T3, Zap-70 (Homo sapiens, UniProt P43403); assay: Kinase inhibition assay (33P transfer), Zap-70; details: Table 3, class symbols; read-out: Zap-1
T3 construct: Kinases are expressed as either kinase domains or full length constructs; made in house
T3 sequence (P43403 1-619): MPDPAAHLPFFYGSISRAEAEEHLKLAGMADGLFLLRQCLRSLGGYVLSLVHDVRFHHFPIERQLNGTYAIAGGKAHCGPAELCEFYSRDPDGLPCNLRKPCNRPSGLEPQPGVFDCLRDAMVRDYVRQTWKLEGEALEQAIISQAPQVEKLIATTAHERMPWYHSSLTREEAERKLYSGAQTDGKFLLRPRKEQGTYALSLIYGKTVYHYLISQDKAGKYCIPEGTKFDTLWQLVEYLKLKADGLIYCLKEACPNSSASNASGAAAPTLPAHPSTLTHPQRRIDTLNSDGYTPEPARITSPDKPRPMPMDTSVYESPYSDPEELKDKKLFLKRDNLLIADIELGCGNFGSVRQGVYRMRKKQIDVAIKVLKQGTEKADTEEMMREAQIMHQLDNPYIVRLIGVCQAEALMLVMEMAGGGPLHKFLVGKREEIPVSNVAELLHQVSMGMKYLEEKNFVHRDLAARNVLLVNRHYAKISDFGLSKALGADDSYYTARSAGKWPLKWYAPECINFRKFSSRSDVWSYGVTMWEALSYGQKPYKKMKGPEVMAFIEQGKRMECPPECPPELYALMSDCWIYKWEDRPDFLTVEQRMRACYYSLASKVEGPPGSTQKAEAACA
Outline: as §1

[4] = biological target: T4, Itk (Homo sapiens, UniProt Q08881); assay: Kinase inhibition assay (33P transfer), Itk; details: Table 3, class symbols; read-out: Itk-1
T4 construct: Kinases are expressed as either kinase domains or full length constructs; made in house
T4 sequence (Q08881 1-620): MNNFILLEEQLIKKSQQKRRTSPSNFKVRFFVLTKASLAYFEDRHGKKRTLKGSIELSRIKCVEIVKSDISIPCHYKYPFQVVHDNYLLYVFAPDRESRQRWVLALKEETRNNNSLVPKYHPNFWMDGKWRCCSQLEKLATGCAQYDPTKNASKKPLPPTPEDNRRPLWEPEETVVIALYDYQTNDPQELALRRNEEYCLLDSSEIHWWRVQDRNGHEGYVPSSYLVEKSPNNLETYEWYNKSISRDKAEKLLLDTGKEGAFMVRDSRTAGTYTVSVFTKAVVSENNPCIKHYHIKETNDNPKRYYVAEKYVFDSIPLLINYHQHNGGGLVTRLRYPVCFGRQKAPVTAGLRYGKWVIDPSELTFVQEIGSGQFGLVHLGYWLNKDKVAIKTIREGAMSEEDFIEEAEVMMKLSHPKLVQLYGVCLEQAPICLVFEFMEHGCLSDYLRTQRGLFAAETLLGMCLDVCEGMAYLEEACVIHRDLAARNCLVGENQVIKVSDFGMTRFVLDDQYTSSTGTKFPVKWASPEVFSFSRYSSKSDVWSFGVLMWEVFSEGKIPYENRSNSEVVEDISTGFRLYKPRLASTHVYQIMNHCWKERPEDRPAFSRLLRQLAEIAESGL
Outline: (§2)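 Each enzyme, purified to near homogeneity by affinity chromatography, was incubated with ATP carrying 33P and a substrate polymer fixed to the plate. Unbound label was removed with dilute phosphoric acid (0.5%) before adding scintillant and counting. Potency is given as the compound level cutting label uptake by 50%.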

[5] = biological target: T5, ErbB2 (Homo sapiens, UniProt P04626); assay: Kinase inhibition assay (33P transfer), ErbB2; details: read-out: ErbB2-2
T5 construct: Kinases are expressed as either kinase domains or full length constructs; made in house
Outline: as §2

[6] = biological target: T6, EGFR (Homo sapiens, UniProt P00533); assay: Kinase inhibition assay (33P transfer), EGFR; details: Table 2, class symbols A-E; read-out: EGFR-1
T6 construct: Kinases are expressed as either kinase domains or full length constructs; made in house
Outline: as §2

[7] = biological target: T7, c-Met (Homo sapiens, UniProt P08581); assay: Kinase inhibition assay (33P transfer), c-Met; details: Table 2, class symbols A-E; read-out: Met-1
T7 construct: Kinases are expressed as either kinase domains or full length constructs; made in house
T7 sequence (P08581 25-1390): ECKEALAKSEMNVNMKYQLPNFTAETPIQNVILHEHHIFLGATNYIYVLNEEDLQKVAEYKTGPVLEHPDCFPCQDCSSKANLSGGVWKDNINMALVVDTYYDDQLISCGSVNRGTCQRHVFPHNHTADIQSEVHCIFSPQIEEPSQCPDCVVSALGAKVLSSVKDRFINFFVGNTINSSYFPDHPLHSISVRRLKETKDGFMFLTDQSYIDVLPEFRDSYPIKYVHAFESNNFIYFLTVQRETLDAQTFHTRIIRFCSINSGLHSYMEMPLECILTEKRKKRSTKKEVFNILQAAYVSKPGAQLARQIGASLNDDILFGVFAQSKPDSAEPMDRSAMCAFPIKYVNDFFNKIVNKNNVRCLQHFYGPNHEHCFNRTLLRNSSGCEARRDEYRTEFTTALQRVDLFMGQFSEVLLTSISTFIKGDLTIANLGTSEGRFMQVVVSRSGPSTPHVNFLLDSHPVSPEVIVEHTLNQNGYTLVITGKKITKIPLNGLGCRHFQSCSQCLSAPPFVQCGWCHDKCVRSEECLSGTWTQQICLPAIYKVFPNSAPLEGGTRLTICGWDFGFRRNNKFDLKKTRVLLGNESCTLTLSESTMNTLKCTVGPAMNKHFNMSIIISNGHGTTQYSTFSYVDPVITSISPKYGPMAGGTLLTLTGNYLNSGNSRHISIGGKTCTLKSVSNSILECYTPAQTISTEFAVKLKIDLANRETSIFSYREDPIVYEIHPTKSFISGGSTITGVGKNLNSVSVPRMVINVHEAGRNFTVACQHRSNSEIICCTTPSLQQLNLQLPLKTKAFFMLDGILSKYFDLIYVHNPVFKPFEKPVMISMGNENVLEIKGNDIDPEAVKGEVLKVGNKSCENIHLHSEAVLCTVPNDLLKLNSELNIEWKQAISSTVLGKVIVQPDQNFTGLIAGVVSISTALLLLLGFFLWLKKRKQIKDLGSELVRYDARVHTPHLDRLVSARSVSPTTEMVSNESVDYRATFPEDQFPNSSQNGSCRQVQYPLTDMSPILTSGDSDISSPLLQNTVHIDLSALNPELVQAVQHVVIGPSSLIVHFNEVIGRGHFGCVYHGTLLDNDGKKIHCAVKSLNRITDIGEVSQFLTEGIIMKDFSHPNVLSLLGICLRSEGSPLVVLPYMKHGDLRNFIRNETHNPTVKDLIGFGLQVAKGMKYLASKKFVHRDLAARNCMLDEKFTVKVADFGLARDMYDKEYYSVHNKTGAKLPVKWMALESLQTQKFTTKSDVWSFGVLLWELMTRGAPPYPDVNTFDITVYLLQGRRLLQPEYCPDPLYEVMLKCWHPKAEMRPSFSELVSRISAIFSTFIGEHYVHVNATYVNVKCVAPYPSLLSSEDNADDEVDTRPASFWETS
Outline: as §2

[8] = biological target: T8, PDGFRB (Homo sapiens, UniProt P09619); assay: Kinase inhibition assay (33P transfer), PDGFRB; details: read-out: PDGFRB-1
T8 construct: Kinases are expressed as either kinase domains or full length constructs; made in house
T8 sequence (P09619 33-1106, species assumed): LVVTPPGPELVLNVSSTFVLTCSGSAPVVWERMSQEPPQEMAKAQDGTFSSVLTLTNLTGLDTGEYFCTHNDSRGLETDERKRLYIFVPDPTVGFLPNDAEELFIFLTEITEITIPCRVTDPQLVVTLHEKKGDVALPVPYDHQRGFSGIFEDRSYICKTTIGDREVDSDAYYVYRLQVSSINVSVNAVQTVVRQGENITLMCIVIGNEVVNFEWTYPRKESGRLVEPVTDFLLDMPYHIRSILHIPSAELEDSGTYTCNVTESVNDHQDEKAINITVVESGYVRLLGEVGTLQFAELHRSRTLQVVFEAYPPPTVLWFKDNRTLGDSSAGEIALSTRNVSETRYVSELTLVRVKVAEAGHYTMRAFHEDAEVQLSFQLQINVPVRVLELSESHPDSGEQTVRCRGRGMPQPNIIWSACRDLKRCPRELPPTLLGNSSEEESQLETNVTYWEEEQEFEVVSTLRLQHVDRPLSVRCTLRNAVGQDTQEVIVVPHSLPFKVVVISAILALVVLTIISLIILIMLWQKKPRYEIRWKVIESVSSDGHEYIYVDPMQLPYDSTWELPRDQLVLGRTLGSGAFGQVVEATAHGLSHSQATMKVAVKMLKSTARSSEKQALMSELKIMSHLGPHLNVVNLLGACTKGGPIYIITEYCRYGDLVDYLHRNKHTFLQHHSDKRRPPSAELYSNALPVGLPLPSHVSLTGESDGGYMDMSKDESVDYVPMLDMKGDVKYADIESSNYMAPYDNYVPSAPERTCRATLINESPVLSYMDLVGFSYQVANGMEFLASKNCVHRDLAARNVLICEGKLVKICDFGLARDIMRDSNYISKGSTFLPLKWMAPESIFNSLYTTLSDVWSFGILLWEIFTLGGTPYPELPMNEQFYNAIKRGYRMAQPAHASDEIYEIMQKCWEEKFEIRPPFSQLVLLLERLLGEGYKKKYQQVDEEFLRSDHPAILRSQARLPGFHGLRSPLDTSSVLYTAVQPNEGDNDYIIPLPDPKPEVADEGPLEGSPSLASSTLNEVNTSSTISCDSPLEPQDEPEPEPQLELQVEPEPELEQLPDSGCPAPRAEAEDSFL

[9] = biological target: T9, Kdr (Homo sapiens, UniProt P35968); assay: Kinase inhibition assay (33P transfer), Kdr; details: Table 3, class symbols; read-out: KDR-1
T9 construct: Kinases are expressed as either kinase domains or full length constructs; made in house
T9 sequence (P35968 20-1356, species assumed): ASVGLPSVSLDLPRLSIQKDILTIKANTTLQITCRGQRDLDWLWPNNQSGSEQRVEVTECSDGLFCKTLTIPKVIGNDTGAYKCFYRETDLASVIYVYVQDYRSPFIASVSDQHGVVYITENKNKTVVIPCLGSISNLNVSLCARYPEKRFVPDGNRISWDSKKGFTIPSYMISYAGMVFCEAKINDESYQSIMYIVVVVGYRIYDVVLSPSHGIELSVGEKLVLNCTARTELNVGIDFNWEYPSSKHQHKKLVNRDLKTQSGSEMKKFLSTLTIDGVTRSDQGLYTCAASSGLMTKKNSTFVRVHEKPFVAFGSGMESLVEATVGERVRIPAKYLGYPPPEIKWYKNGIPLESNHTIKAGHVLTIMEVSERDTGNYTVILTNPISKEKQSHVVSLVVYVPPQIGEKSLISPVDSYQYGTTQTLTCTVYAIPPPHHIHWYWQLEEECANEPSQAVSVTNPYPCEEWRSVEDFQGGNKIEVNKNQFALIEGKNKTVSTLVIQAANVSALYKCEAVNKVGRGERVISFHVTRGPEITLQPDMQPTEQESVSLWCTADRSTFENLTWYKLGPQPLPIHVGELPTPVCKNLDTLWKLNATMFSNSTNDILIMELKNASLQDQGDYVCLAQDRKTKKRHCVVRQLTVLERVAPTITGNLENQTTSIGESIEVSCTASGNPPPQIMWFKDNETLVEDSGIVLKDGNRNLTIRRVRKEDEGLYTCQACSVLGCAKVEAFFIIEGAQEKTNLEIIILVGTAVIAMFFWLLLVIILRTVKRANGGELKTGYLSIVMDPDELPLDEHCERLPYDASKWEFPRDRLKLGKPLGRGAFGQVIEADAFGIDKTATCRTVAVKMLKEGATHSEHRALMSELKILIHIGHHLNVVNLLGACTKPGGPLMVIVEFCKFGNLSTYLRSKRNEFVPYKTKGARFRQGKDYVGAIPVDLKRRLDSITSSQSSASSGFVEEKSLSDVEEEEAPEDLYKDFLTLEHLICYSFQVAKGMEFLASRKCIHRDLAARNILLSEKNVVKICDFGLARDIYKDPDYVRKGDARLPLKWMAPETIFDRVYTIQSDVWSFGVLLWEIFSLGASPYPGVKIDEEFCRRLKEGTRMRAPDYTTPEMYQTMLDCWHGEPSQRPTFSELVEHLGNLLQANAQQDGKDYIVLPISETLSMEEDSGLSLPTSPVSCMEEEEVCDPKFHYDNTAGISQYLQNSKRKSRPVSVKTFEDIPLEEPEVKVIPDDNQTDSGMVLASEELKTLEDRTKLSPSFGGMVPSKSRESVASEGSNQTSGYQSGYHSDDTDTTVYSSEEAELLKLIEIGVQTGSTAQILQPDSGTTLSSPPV
Outline: as §1

[10] = biological target: T10, Lck (Homo sapiens, UniProt P06239); assay: Kinase inhibition assay (33P transfer), Lck; details: Table 3, class symbols; read-out: Lck-1
T10 construct: Kinases are expressed as either kinase domains or full length constructs; made in house
T10 sequence (P06239 whole entry, species assumed, the tested form may be a part): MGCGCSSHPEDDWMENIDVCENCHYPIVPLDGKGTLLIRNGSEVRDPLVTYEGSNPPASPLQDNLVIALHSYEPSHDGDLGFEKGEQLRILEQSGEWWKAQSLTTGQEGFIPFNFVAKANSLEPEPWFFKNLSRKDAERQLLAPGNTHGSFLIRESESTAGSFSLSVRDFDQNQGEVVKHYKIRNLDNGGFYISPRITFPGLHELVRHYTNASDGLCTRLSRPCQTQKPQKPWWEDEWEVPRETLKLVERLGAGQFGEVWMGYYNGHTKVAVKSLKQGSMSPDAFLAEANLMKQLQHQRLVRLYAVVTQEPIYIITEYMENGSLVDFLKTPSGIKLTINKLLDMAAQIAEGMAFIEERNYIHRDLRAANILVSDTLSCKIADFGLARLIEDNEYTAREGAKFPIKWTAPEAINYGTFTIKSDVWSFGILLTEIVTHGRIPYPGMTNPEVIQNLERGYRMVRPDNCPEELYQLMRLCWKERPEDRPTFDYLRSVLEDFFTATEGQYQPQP
Outline: as §1

| Compound | IC50 [1] [µM] | IC50 [2] [µM] | IC50 [3] [µM] | IC50 [4] [µM] | IC50 [5] [µM] | IC50 [6] [µM] | IC50 [7] [µM] | IC50 [8] [µM] | IC50 [9] [µM] | IC50 [10] [µM] |
| --- | --- | --- | --- | --- | --- | --- | --- | --- | --- | --- |
| COc1cc(Nc2ncnc(Nc3cc(Cl)c(NC(=O)c4ccccc4)cc3C)n2)cc(OC)c1OC [Compound 633] | > 8.64 | > 8.64 | > 8.64 | > 8.64 | 0.768 to 4.61 | 0.768 to 4.61 | > 8.64 | 4.61 to 6.72 | 6.72 to 8.64 | 0.768 to 4.61 |
| COc1ccc(Nc2ncnc(N(C)c3ccc(F)cc3F)n2)cc1OC [Compound 801] | > 12.1 | > 12.1 | > 12.1 | > 12.1 | 9.37 to 12.1 | < 1.07 | 1.07 to 6.43 | 1.07 to 6.43 | 6.43 to 9.37 | 1.07 to 6.43 |
| COc1cc(Nc2ncnc(-c3cccnc3Nc3ccc4c(c3)CCC4)n2)cc(OC)c1OC [Compound 830] | > 9.56 | > 9.56 | > 9.56 | > 9.56 | > 9.56 | > 9.56 | 0.85 to 5.1 | > 9.56 | 0.85 to 5.1 | > 9.56 |
| CC(C)Nc1ncccc1-c1ncnc(Nc2cccc(Cn3ccnn3)c2)n1 [Compound 1098] | > 11.6 | 6.19 to 9.03 | > 11.6 | 1.03 to 6.19 | > 11.6 | 6.19 to 9.03 | 6.19 to 9.03 | 1.03 to 6.19 | 1.03 to 6.19 | 1.03 to 6.19 |
| Cc1cccc(Nc2ncnc(N(C)c3ccc4c(cnn4Cc4ccccc4)c3)n2)c1 [Compound 668] | > 10.7 | > 10.7 | > 10.7 | > 10.7 | < 0.949 | < 0.949 | 5.69 to 8.3 | 8.3 to 10.7 | 5.69 to 8.3 | 5.69 to 8.3 |
| COC(=O)c1ccc(-c2cc(Nc3ncnc(Nc4ccc(N5CCOCC5)cc4)n3)[nH]n2)cc1 [Compound 807] | 0.847 to 5.08 | > 9.52 | > 9.52 | 5.08 to 7.41 | 0.847 to 5.08 | 7.41 to 9.52 | < 0.847 | > 9.52 | > 9.52 | > 9.52 |
| CN(c1cccc(Cl)c1)c1ncnc(Nc2ccc(OC(F)(F)F)cc2)n1 [Compound 874] | > 11.4 | > 11.4 | > 11.4 | > 11.4 | > 11.4 | 1.01 to 6.06 | > 11.4 | > 11.4 | > 11.4 | > 11.4 |
| Fc1ccc(CNc2ncccc2-c2ncnc(Nc3ccc4[nH]ncc4c3)n2)cc1 [Compound 1108] | 5.82 to 8.49 | 0.97 to 5.82 | 5.82 to 8.49 | 5.82 to 8.49 | > 10.9 | 0.97 to 5.82 | > 10.9 | < 0.97 | < 0.97 | 5.82 to 8.49 |
| COc1cc(Nc2ncnc(-c3cccnc3Nc3cccc4c3CCCC4)n2)cc(OC)c1OC [Compound 841] | > 9.29 | > 9.29 | > 9.29 | > 9.29 | > 9.29 | > 9.29 | > 9.29 | > 9.29 | > 9.29 | > 9.29 |
| COc1cc(Nc2ncnc(-c3cccnc3NCC(C)c3ccccc3)n2)cc(OC)c1OC (stereo not shown) [Compound 890] | > 9.52 | > 9.52 | > 9.52 | > 9.52 | > 9.52 | > 9.52 | > 9.52 | 0.846 to 5.08 | 7.41 to 9.52 | > 9.52 |
| COc1cc(Nc2ncnc(N(C)c3cccc(Cl)c3)n2)cc2ccccc12 [Compound 876] | > 11.5 | > 11.5 | > 11.5 | 8.93 to 11.5 | 1.02 to 6.12 | < 1.02 | > 11.5 | > 11.5 | > 11.5 | > 11.5 |
| COc1cc(Nc2ncnc(Nc3cc(-c4ccc(C(=O)N(C)C)cc4)n[nH]3)n2)cc(OC)c1OC [Compound 993] | < 0.815 | > 9.17 | > 9.17 | 4.89 to 7.14 | 0.815 to 4.89 | 0.815 to 4.89 | < 0.815 | 0.815 to 4.89 | 0.815 to 4.89 | < 0.815 |
| COC(=O)c1ccc(-c2cc(Nc3ncnc(NCc4ccco4)n3)[nH]n2)cc1 [Compound 805] | 6.13 to 8.94 | > 11.5 | > 11.5 | 6.13 to 8.94 | > 11.5 | > 11.5 | 6.13 to 8.94 | > 11.5 | > 11.5 | > 11.5 |
| Nc1nc2ccccc2n1-c1ncnc(Nc2cccc(Cn3ccnn3)c2)n1 [Compound 960] | < 1.04 | > 11.7 | > 11.7 | 1.04 to 6.24 | 6.24 to 9.1 | 6.24 to 9.1 | 9.1 to 11.7 | 9.1 to 11.7 | < 1.04 | 1.04 to 6.24 |
| COc1cc(Nc2ncnc(-c3cccnc3Nc3ccccc3C)n2)cc(OC)c1OC [Compound 833] | > 10.1 | > 10.1 | > 10.1 | > 10.1 | > 10.1 | > 10.1 | > 10.1 | < 0.9 | < 0.9 | < 0.9 |
| COC(=O)c1ccc(-c2cc(Nc3ncnc(Nc4cc(F)cc(F)c4)n3)[nH]n2)cc1 [Compound 810] | 8.27 to 10.6 | > 10.6 | > 10.6 | > 10.6 | > 10.6 | > 10.6 | > 10.6 | > 10.6 | > 10.6 | > 10.6 |
| O=C(O)/C=C/c1ccc(Nc2ncnc(Nc3cc(-c4ccco4)[nH]n3)n2)cc1 [Compound 886] | 1.03 to 6.16 | 1.03 to 6.16 | 1.03 to 6.16 | < 1.03 | 1.03 to 6.16 | < 1.03 | < 1.03 | > 11.6 | < 1.03 | 1.03 to 6.16 |
| COc1cc(Nc2ncnc(-c3cccnc3NCc3ccccc3OC(F)(F)F)n2)cc(OC)c1OC [Compound 842] | > 8.51 | > 8.51 | 6.62 to 8.51 | > 8.51 | 6.62 to 8.51 | > 8.51 | 6.62 to 8.51 | 4.54 to 6.62 | 0.757 to 4.54 | > 8.51 |
| c1ccc(CNc2nc3ccccc3n2-c2ncnc(Nc3cccc(Cn4ccnn4)c3)n2)nc1 [Compound 962] | 7.36 to 9.46 | > 9.46 | > 9.46 | > 9.46 | 7.36 to 9.46 | 5.05 to 7.36 | > 9.46 | < 0.841 | < 0.841 | 0.841 to 5.05 |
